Data taken from patent publication US20100063047A1 (KALYPSYS, INC., priority 2008, published 2010).

What was measured:
[1] = target: T1, human H4 (Homo sapiens, UniProt Q9H3N8); test: In vitro histamine H4 receptor cell-based aequorin bioluminescence antagonist assay; details: CHO-K1 cells expressing human H4, aequorin and Gα16; histamine at EC80
T1 construct: host or cells: CHO-K1, also expressing mitochondrion-targeted aequorin and human Gα16
Description: In vitro Histamine Receptor Cell-Based Assays
The cell-based assays utilize an aequorin dependent bioluminescence signal. Doubly-transfected, stable CHO—K1 cell lines expressing human H1 or H4, mitochondrion-targeted aequorin, and (H4 only) human G protein Gα16 are obtained from Perkin-Elmer. Cells are maintained in F12 (Ham's) growth medium, containing 10% (vol./vol.) fetal bovine serum, penicillin (100 IU/mL), streptomycin (0.1 mg/mL), zeocin (0.25 mg/mL) and geneticin (0.40 mg/mL). Cell media components are from Invitrogen, Inc. One day prior to assay, the growth medium is replaced with the same, excluding zeocin and geneticin.
For assay preparation, growth medium is aspirated, and cells are rinsed with calcium-free, magnesium-free phosphate-buffered saline, followed by two to three minute incubation in Versene (Invitrogen, Inc.) at 37° C. Assay medium (DMEM:F12 [50:50], phenol-red free, containing 1 mg/mL protease-free bovine serum albumin) is added to collect the released cells, which are then centrifuged. The cell pellet is re-suspended in assay medium, centrifuged once more, and re-suspended in assay medium to a final density of 5×10^6 cells/mL. Coelenterazine-h dye (500 μM in ethanol) is added to a final concentration of 5 μM, and mixed immediately. The conical tube containing the cells is then wrapped with foil to protect the light-sensitive dye. The cells are incubated for four hours further at room temperature (approximately 21° C.) with end-over-end rotation to keep them in suspension.
Just before assay, the dye-loaded cells are diluted to 0.75×10^6 cells/mL (H1 receptor) or 1.5×10^6 cells/mL (H4 receptor) with additional assay medium. Cells are dispensed to 1536 well micro-titer plates at 3 μL/well. To assay receptor antagonism, 60 nl of 100× concentration test compounds in 100% dimethyl sulfoxide (DMSO) are dispensed to the wells, one compound per well, by passive pin transfer, and the plates are incubated for 15 minutes at room temperature. […] The pipette dispenses 3 μL/well of agonist (histamine, at twice the final concentration, where final concentration is a previously determined EC80) in assay medium, with concurrent bioluminescence detection. Agonist activity of test compounds is excluded by separate assays that measure response to test compounds immediately, without added histamine agonist.
CCD image capture on the Lumilux includes a 5 second baseline read prior to agonist addition, and generally a 40 second read per plate after agonist addition. A decrease in bioluminescence signal (measured either as area-under-the-curve, or maximum signal amplitude minus minimum signal amplitude) correlates with receptor antagonism in a dose dependent manner. The negative control is DMSO lacking any test compound. For antagonist assays, the positive controls are diphenhydramine (2-Diphenylmethoxy-N,N-dimethylethylamine, 10 μM final concentration, H1 receptor) or JNJ7777120 (1-[(5-Chloro-1H-indol-2-yl)carbonyl]-4-methyl-piperazine, 10 μM final concentration, H4 receptor). Efficacy is measured as a percentage of positive control activity.

[2] = target: T2, human H1 (Homo sapiens, UniProt P35367); test: In vitro histamine H1 receptor cell-based aequorin bioluminescence antagonist assay; details: CHO-K1 cells expressing human H1 and aequorin; histamine at EC80; read-out: H1 Antagonist EC50
T2 construct: host or cells: CHO-K1, also expressing mitochondrion-targeted aequorin
Procedure, shortened: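 CHO-K1 cells stably expressing human H1 or H4 plus mitochondrial aequorin (H4 also with Gα16), loaded with 5 μM coelenterazine-h for 4 h at ~21 °C. Compounds preincubated 15 min at room temperature, then histamine at EC80 added.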

T2 sequence (P35367 whole entry): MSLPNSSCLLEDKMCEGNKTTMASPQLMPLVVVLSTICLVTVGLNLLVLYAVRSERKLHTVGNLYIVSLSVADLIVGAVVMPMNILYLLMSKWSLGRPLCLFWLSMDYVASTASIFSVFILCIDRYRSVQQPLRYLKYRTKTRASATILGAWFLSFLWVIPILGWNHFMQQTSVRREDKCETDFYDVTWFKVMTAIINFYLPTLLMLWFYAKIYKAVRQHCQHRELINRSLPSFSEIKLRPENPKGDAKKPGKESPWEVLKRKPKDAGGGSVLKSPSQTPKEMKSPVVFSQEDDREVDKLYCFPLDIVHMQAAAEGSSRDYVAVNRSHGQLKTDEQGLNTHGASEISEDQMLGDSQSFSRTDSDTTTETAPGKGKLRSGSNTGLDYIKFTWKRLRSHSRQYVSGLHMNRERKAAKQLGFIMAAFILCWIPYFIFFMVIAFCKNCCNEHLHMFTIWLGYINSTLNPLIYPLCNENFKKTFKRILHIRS

EC50 [1] | EC50 [2] | Compound
> 10 µM | > 10 µM | Cc1csc2ncnc(NCCCN3CCCC3=O)c12 [Example 132, 1-[3-({5-methylthieno[2,3-d]pyrimidin-4-yl}amino)propyl]pyrrolidin-2-one]
> 10 µM | > 10 µM | CCN(CC)CCCC(C)Nc1ncnc2scc(C)c12 (stereo not shown) [Example 151, diethyl[4-({5-methylthieno[2,3-d]pyrimidin-4-yl}amino)pentyl]amine]
> 10 µM | > 10 µM | C#CCN(Cc1ccc(Cl)cc1Cl)c1ncnc2scc(C)c12 [Example 281, N-[(2,4-dichlorophenyl)methyl]-5-methyl-N-(prop-2-yn-1-yl)thieno[2,3-d]pyrimidin-4-amine]
> 10 µM | > 10 µM | Cc1csc2ncnc(N3CCN(c4ccc(C(F)(F)F)cn4)CC3)c12 [Example 2, 5-methyl-4-(4-(5-(trifluoromethyl)pyridin-2-yl)piperazin-1-yl)thieno[2,3-d]pyrimidine]
> 10 µM | > 10 µM | Cc1csc2ncnc(N(C)CC(O)c3ccc(O)cc3)c12 (stereo not shown) [Example 238, 4-{1-hydroxy-2-[methyl({5-methylthieno[2,3-d]pyrimidin-4-yl})amino]ethyl}phenol]
> 10 µM | > 10 µM | Cc1csc2ncnc(NC(C)CO)c12 (stereo not shown) [Example 63, 2-({5-methylthieno[2,3-d]pyrimidin-4-yl}amino)propan-1-ol]
> 10 µM | > 10 µM | COc1ccc(CNc2ncnc3scc(C)c23)cc1O [Example 171, 2-methoxy-5-[({5-methylthieno[2,3-d]pyrimidin-4-yl}amino)methyl]phenol]
> 10 µM | > 10 µM | Cc1csc2ncnc(N3CCCC(C(N)=O)C3)c12 (stereo not shown) [Example 213, 1-{5-methylthieno[2,3-d]pyrimidin-4-yl}piperidine-3-carboxamide]
> 10 µM | > 10 µM | Cc1csc2ncnc(NN3CCOCC3)c12 [Example 81, N-{5-methylthieno[2,3-d]pyrimidin-4-yl}morpholin-4-amine]
> 10 µM | > 10 µM | CCN(CCCCO)c1ncnc2scc(C)c12 [Example 207, 4-[ethyl({5-methylthieno[2,3-d]pyrimidin-4-yl})amino]butan-1-ol]
> 10 µM | > 10 µM | Cc1csc2ncnc(NCCN(C(C)C)C(C)C)c12 [Example 137]
> 10 µM | > 10 µM | Cc1csc2ncnc(N3CCSCC3)c12 [Example 197, 4-{5-methylthieno[2,3-d]pyrimidin-4-yl}thiomorpholine]
> 10 µM | > 10 µM | COc1ccc(Nc2ncnc3scc(C)c23)cc1OC [Example 147, N-(3,4-dimethoxyphenyl)-5-methylthieno[2,3-d]pyrimidin-4-amine]
> 10 µM | > 10 µM | Cc1csc2ncnc(N3CCC(O)(O)CC3)c12 [Example 228, 1-{5-methylthieno[2,3-d]pyrimidin-4-yl}piperidine-4,4-diol]
> 10 µM | > 10 µM | Cc1csc2ncnc(N(CCN(C)C)Cc3ccccc3)c12 [Example 244, N-benzyl-N-[2-(dimethylamino)ethyl]-5-methylthieno[2,3-d]pyrimidin-4-amine]
> 10 µM | > 10 µM | Cc1csc2ncnc(NCC3(O)CCCCC3)c12 [Example 158, 1-[({5-methylthieno[2,3-d]pyrimidin-4-yl}amino)methyl]cyclohexan-1-ol]
> 10 µM | > 10 µM | Cc1csc2ncnc(NCC#N)c12 [Example 52, 2-({5-methylthieno[2,3-d]pyrimidin-4-yl}amino)acetonitrile]

EC50 [1] | EC50 [2] | Compound
> 10 µM | > 10 µM | Cc1csc2ncnc(N3CCN(c4ccc(F)cc4F)CC3)c12 [Example 267, 1-(2,4-difluorophenyl)-4-{5-methylthieno[2,3-d]pyrimidin-4-yl}piperazine]
> 10 µM | > 10 µM | Cc1cnc(CNc2ncnc3scc(C)c23)cn1 [Example 101, 5-methyl-N-[(5-methylpyrazin-2-yl)methyl]thieno[2,3-d]pyrimidin-4-amine]
> 10 µM | > 10 µM | Cc1csc2ncnc(NN3CCN(C)CC3)c12 [Example 93, 4-methyl-N-{5-methylthieno[2,3-d]pyrimidin-4-yl}piperazin-1-amine]
> 10 µM | > 10 µM | COc1ccc(N2CCN(c3ncnc4scc(C)c34)CC2)cc1 [Example 261, 1-(4-methoxyphenyl)-4-{5-methylthieno[2,3-d]pyrimidin-4-yl}piperazine]
> 10 µM | > 10 µM | Cc1csc2ncnc(NCCN(C)C)c12 [Example 70, dimethyl[2-({5-methylthieno[2,3-d]pyrimidin-4-yl}amino)ethyl]amine]
> 10 µM | > 10 µM | Cc1csc2ncnc(NC3CC(C)(C)NC(C)(C)C3)c12 [Example 150, 2,2,6,6-tetramethyl-N-{5-methylthieno[2,3-d]pyrimidin-4-yl}piperidin-4-amine]
> 10 µM | > 10 µM | CCCCN(CC)c1ncnc2scc(C)c12 [Example 195, N-butyl-N-ethyl-5-methylthieno[2,3-d]pyrimidin-4-amine]
> 10 µM | > 10 µM | CCNc1ncnc2scc(C)c12 [Example 50, N-ethyl-5-methylthieno[2,3-d]pyrimidin-4-amine]
> 10 µM | > 10 µM | Cc1ccc([C@@H](C)Nc2ncnc3scc(C)c23)cc1 [Example 115, 5-methyl-N-[(1R)-1-(4-methylphenyl)ethyl]thieno[2,3-d]pyrimidin-4-amine]
> 10 µM | > 10 µM | Cc1csc2ncnc(N3CCN(c4ccccc4)CC3)c12 [Example 233, 1-{5-methylthieno[2,3-d]pyrimidin-4-yl}-4-phenylpiperazine]
> 10 µM | > 10 µM | CCN(c1ncnc2scc(C)c12)C(C)C [Example 186, N-ethyl-5-methyl-N-(propan-2-yl)thieno[2,3-d]pyrimidin-4-amine]
> 10 µM | > 10 µM | Cc1csc2ncnc(N(CCCO)Cc3ccccn3)c12 [Example 237, 3-({5-methylthieno[2,3-d]pyrimidin-4-yl}(pyridin-2-ylmethyl)amino)propan-1-ol]
> 10 µM | > 10 µM | COc1cc(CN(C)c2ncnc3scc(C)c23)cc(OC)c1OC [Example 276, N,5-dimethyl-N-[(3,4,5-trimethoxyphenyl)methyl]thieno[2,3-d]pyrimidin-4-amine]
> 10 µM | > 10 µM | C=CCN(c1ncnc2scc(C)c12)C1CCCCC1 [Example 223, N-cyclohexyl-5-methyl-N-(prop-2-en-1-yl)thieno[2,3-d]pyrimidin-4-amine]
> 10 µM | > 10 µM | Cc1csc2ncnc(N(CCC#N)Cc3cccnc3)c12 [Example 232, 3-({5-methylthieno[2,3-d]pyrimidin-4-yl}(pyridin-3-ylmethyl)amino)propanenitrile]
> 10 µM | > 10 µM | Cc1csc2ncnc(N3CCN(c4ccc(C(C)(C)C)cc4)CC3)c12 [Example 284, 1-(4-tert-butylphenyl)-4-{5-methylthieno[2,3-d]pyrimidin-4-yl}piperazine]
> 10 µM | > 10 µM | Cc1csc2ncnc(N3CCN(c4cccc(C(F)(F)F)c4)CC3)c12 [Example 288, 1-{5-methylthieno[2,3-d]pyrimidin-4-yl}-4-[3-(trifluoromethyl)phenyl]piperazine]

Compound | EC50 [1] | EC50 [2]
Cc1csc2ncnc(N3C[C@@H](C)N[C@@H](C)C3)c12 [Example 203, (3R,5S)-3,5-dimethyl-1-{5-methylthieno[2,3-d]pyrimidin-4-yl}piperazine] | > 10 µM | > 10 µM
